Our source for the Binding % values is patent US10377743B2, “Inhibitors of RAS and methods of use thereof” (Araxes Pharma LLC, priority 2016, dated 2019).

The target in this assay is T1, KRAS G12C 1-169, his-tagged protein, GDP-loaded (Homo sapiens, UniProt P01116, G12C).
T1 construct: KRAS G12C 1-169, his-tagged protein, GDP-loaded
The experiment in a line: Biochemical assay: covalent binding (modification %) to KRAS G12C by mass spectrometry. To be noted: 2 hour incubation period. Here is the method:
Test compounds were prepared as 10 mM stock solutions in DMSO (Fisher cat# BP-231-100). KRAS G12C 1-169, his-tagged protein, GDP-loaded was diluted to 2 μM or 0.5 μM in buffer (20 mM Hepes, 150 mM NaCl, 1 mM MgCl2). Compounds were tested for activity as follows:
Compounds were diluted to 50× final test concentration in DMSO in 96-well storage plates. Compound stock solutions were vortexed before use and observed carefully for any sign of precipitation. Dilutions were as follow: • For 100 μM final compound concentration, compounds were diluted to 5000 μM (5 μL 10 mM compound stock+5 μL DMSO and mixed well by pipetting. • For 30 μM final compound concentration, compounds were diluted to 1500 μM (3 μL 10 mM compound stock+17 μL DMSO) and mixed well by pipetting. • For 10 μM final compound concentration, compounds were diluted to 500 μM (2 μL 10 mM compound stock+38 μL DMSO) and mixed well by pipetting. 49 μL of the stock protein solution was added to each well of a 96-well PCR plate (Fisher cat#1423027). 1 μl of the diluted 50× compounds were added to appropriate wells in the PCR plate using 12-channel pipettor. Reactions were mixed carefully and thoroughly by pipetting up/down with a 200 μL multi-channel pipettor. The plate was sealed well with aluminum plate seal, and stored in drawer at room temperature for 10 minutes, 30 minutes, 2 hours or 24 hours. 5 μL of 2% formic acid (Fisher cat# A117) in de-ionized H2O was then added to each well followed by mixing with a pipette. The plate was then resealed with aluminum seal and stored on dry ice until analyzed as described below.
The above described assays were analyzed by mass spectrometry according to one of the following two procedures:
The MS instrument is set to positive polarity, 2 GHz resolution, and low mass (1700) mode and allowed to equilibrate for 30 minutes. The instrument is then calibrated, switched to acquisition mode and the appropriate method loaded.
After another 30 minute equilibration time, a blank batch (i.e., buffer) is run to ensure equipment is operating properly. The samples are thawed at 37° C. for 10 minutes, briefly centrifuged, and transfer to the bench top. Wells A1 and H12 are spiked with 1 μL 500 μM internal standard peptide, and the plates centrifuged at 2000×g for 5 minutes. The method is then run and masses of each individual well recorded.
The masses (for which integration data is desired) for each well are pasted into the platemap and exported from the analysis. Masses for the internal standards are exported as well. The data at 50 ppm is extracted for the +19 charge state, and identity of well A1 is assigned using the internal standard spike and integrated. Peak data is exported as a TOF list and the above steps are repeated individually, for the +20, 21, 22, 23, 24, and 25 charge states.
The masses and peak intensities of KRAS G12C protein species were measured using a Dionex RSLCnano system (Thermo Scientific) connected to a Q Exactive Plus mass spectrometer (Thermo Scientific).
[…] of sample was each loaded onto a Aeris™ 3.6 μm WIDEPORE C4 200 Å, LC Column 50×2.1 mm column maintained at 40° C. at a flow rate of 600 μL/min with 20% Solvent A (0.1% formic acid in H2O) and 80% Solvent B (0.1% formic acid in acetonitrile). The liquid chromatography conditions were 20% solvent B for 1 minute, 20% to 60% solvent B for 1.5 minutes, 60% to 90% solvent for 0.5 minute, 90% solvent B for 0.2 minute, 90% to 20% solvent B for 0.2 minute, and then equilibrated for 1.6 minute before the following sample injection. The flow rate was maintained at 600 μL/min throughout the sample analysis.
The mass spectrometer was operated in profile mode at a resolution of 17500, 5 microscans, using 50 msec max injection time and an AGC target of 1×10^6, and a full mass range from 800-1850 m/z was recorded. The HCD trapping gas was optimized for maximum sensitivity for intact proteins. […]

[1] abbreviates: 8 μM compound (compounds 21-92).
Where [2] appears, read: 10 μM compound (compounds 1-20).

Molecules are shown by their SMILES.

With `C=CC(=O)N1CC(N2Cc3ccc(-c4cccc(NC)c4)cc3C2=O)C1` [Compound 58, 2-(1-acryloylazetidin-3-yl)-6-(3-(methylamino)phenyl)isoindolin-1-one], under setting [1], the Binding % entry is listed as “+ (+ indicates binding activity up to 10%)”.
As for `C=CC(=O)N1CC(N2Cc3ccc(-c4c(O)cccc4F)cc3C2=O)C1` [Compound 6, 2-(1-acryloylazetidin-3-yl)-6-(2-fluoro-6-hydroxyphenyl)isoindolin-1-one], the Binding % entry under setting [2] is listed as “+ (+ indicates binding activity up to 10%)”.
Regarding `C=CC(=O)N1CC(N2Cc3ccc(-c4c(C)ccc5cn[nH]c45)cc3C2=O)C1` [Compound 8, 2-(1-acryloylazetidin-3-yl)-6-(6-methyl-1H-indazol-7-yl)isoindolin-1-one], under setting [2], the Binding % entry is recorded as “+ (+ indicates binding activity up to 10%)”.
In the case of `C=CC(=O)N1CC(N2Cc3cc(C(N)=O)c(-c4cc(O)cc5ccccc45)cc3C2=O)C1` [Compound 63, 2-(1-acryloylazetidin-3-yl)-6-(3-hydroxynaphthalen-1-yl)-1-oxoisoindoline-5-carboxamide], the Binding % result under setting [1] is listed as “++ (++ indicates binding activity from 10 to 50%)”.
As to `C=CC(=O)N1CCCC(N2Cc3ccc(-c4cc(O)cc5ccccc45)cc3C2=O)C1` (stereo not shown) [Compound 4, 2-(1-acryloylpiperidin-3-yl)-6-(3-hydroxynaphthalen-1-yl)isoindolin-1-one], the Binding % entry under setting [2] is given as “+ (+ indicates binding activity up to 10%)”.
`C=CC(=O)N1CC(N2Cc3ccc(-c4cccc(O)n4)cc3C2=O)C1` [Compound 54, 2-(1-acryloylazetidin-3-yl)-6-(6-hydroxypyridin-2-yl)isoindolin-1-one]: the Binding % result under setting [1] is on record as “+ (+ indicates binding activity up to 10%)”.
With `C=CC(=O)N1CC(N2Cc3ccc(-c4ccc(NC)cc4)cc3C2=O)C1` [Compound 52, 2-(1-acryloylazetidin-3-yl)-6-(4-(methylamino)phenyl)isoindolin-1-one], the Binding % result under setting [1] was “+ (+ indicates binding activity up to 10%)”.
Regarding `C=CC(=O)N1CC(N2Cc3ccc(-c4c(C)ccc5[nH]ncc45)c(F)c3C2=O)C1` [Compound 69, 2-(1-acryloylazetidin-3-yl)-7-fluoro-6-(5-methyl-1H-indazol-4-yl)isoindolin-1-one], under setting [1], the Binding % entry is “++ (++ indicates binding activity from 10 to 50%)”.
For the compound `C=CC(=O)N1CC(N2Cc3c(C)cc(-c4cc(O)cc5ccccc45)cc3C2=O)C1` [Compound 14, 2-(1-acryloylazetidin-3-yl)-6-(3-hydroxynaphthalen-1-yl)-4-methylisoindolin-1-one], under setting [2], the Binding % result is on record as “+++ (+++ indicates binding activity greater than 50%)”.
Take `C=CC(=O)N1CC(N2CCc3ccc(-c4cc(O)cc5ccccc45)cc3C2=O)C1` [Compound 35, 2-(1-acryloylazetidin-3-yl)-7-(3-hydroxynaphthalen-1-yl)-3,4-dihydroisoquinolin-1(2H)-one]: the Binding % result under setting [1] is on record as “+++ (+++ indicates binding activity greater than 50%)”.
Consider `C=CC(=O)N1CC(N2Cc3c(F)cc(-c4cc(O)cc5ccccc45)cc3C2=O)C1` [Compound 27, 2-(1-acryloylazetidin-3-yl)-4-fluoro-6-(3-hydroxynaphthalen-1-yl)isoindolin-1-one], for which the Binding % entry under setting [1] is reported as “+++ (+++ indicates binding activity greater than 50%)”.
`C=CC(=O)N1CC(N2Cc3ccc(-c4cccnc4O)cc3C2=O)C1` [Compound 68, 2-(1-acryloylazetidin-3-yl)-6-(2-hydroxypyridin-3-yl)isoindolin-1-one]: the Binding % result under setting [1] is listed as “+ (+ indicates binding activity up to 10%)”.
On the same count and under the same terms, the result for `C=CC(=O)N1CC(N2Cc3ccc(-c4c(C)ccc5[nH]ncc45)cc3C2)C1` [Compound 56, 1-(3-(5-(5-methyl-1H-indazol-4-yl)isoindolin-2-yl)azetidin-1-yl)prop-2-en-1-one] reads “+ (+ indicates binding activity up to 10%)”; that for `C=CC(=O)N1CC(N2Cc3ccc(-c4cc(O)cc5ccccc45)c(F)c3C2=O)C1` [Compound 67, 2-(1-acryloylazetidin-3-yl)-7-fluoro-6-(3-hydroxynaphthalen-1-yl)isoindolin-1-one], “+++ (+++ indicates binding activity greater than 50%)”; that for `C=CC(=O)N1CC(N2Cc3ccc(N4CCc5ccccc54)cc3C2=O)C1` [Compound 57, 2-(1-acryloylazetidin-3-yl)-6-(indolin-1-yl)isoindolin-1-one], “+ (+ indicates binding activity up to 10%)”.
Consider `C=CC(=O)N1CC(N2Cc3ccc(-c4ccc(C(N)=O)cc4)cc3C2=O)C1` [Compound 81, 4-(2-(1-acryloylazetidin-3-yl)-3-oxoisoindolin-5-yl)benzamide], for which, under setting [1], the Binding % result is “+ (+ indicates binding activity up to 10%)”.
Consider `C=CC(=O)N1CC(N2Cc3ccc(N4CCCC(O)C4)cc3C2=O)C1` (stereo not shown) [Compound 72, 2-(1-acryloylazetidin-3-yl)-6-(3-hydroxypiperidin-1-yl)isoindolin-1-one], for which the Binding % result under setting [1] is “+ (+ indicates binding activity up to 10%)”.
For the compound `C=CC(=O)N1CC(N2Cc3ccc(NC(=O)c4cn[nH]c4)cc3C2=O)C1` [Compound 86, N-(2-(1-acryloylazetidin-3-yl)-3-oxoisoindolin-5-yl)-1H-pyrazole-4-carboxamide], the Binding % entry under setting [1] was “+ (+ indicates binding activity up to 10%)”.
On the same count and under the same terms, the result for `C=CC(=O)N1CC(N2Cc3ccc(-c4cccc5cn[nH]c45)cc3C2=O)C1` [Compound 53, 2-(1-acryloylazetidin-3-yl)-6-(1H-indazol-7-yl)isoindolin-1-one] reads “+ (+ indicates binding activity up to 10%)”.
With `C=CC(=O)N1CC(N2Cc3ccc(-c4cc(O)ccc4Cl)cc3CC2=O)C1` [Compound 40, 2-(1-acryloylazetidin-3-yl)-6-(2-chloro-5-hydroxyphenyl)-1,2-dihydroisoquinolin-3(4H)-one], the Binding % result under setting [1] is listed as “+++ (+++ indicates binding activity greater than 50%)”.
On the same count and under the same terms, the result for `C=CC(=O)N1CC(N2Cc3c(OC)cc(-c4c(C)ccc5[nH]ncc45)cc3C2=O)C1` [Compound 92, 2-(1-acryloylazetidin-3-yl)-4-methoxy-6-(5-methyl-1H-indazol-4-yl)isoindolin-1-one] reads “++ (++ indicates binding activity from 10 to 50%)”; that for `C=CC(=O)N1CC(N2Cc3c(O)cc(-c4c(C)ccc5[nH]ncc45)cc3C2=O)C1` [Compound 44, 2-(1-acryloylazetidin-3-yl)-4-hydroxy-6-(5-methyl-1H-indazol-4-yl)isoindolin-1-one], “++ (++ indicates binding activity from 10 to 50%)”.
As to `C=CC(=O)N1CC(N2Cc3cc(C#N)c(-c4cc(O)cc5ccccc45)cc3C2=O)C1` [Compound 64, 2-(1-acryloylazetidin-3-yl)-6-(3-hydroxynaphthalen-1-yl)-1-oxoisoindoline-5-carbonitrile], the Binding % result under setting [1] was “+++ (+++ indicates binding activity greater than 50%)”.
On to `C=CC(=O)N1CC(N2Cc3ccc(-c4c(C)ccc5[nH]ncc45)cc3C2=O)C1` [Compound 5, 2-(1-acryloylazetidin-3-yl)-6-(5-methyl-1H-indazol-4-yl)isoindolin-1-one], for which, under setting [2], the Binding % result is “++ (++ indicates binding activity from 10 to 50%)”.
With `C=CC(=O)N1CC(N2Cc3ccc(-c4c(C)ccc5cn[nH]c45)cc3CC2=O)C1` [Compound 39, 2-(1-acryloylazetidin-3-yl)-6-(6-methyl-1H-indazol-7-yl)-1,2-dihydroisoquinolin-3(4H)-one], the Binding % entry under setting [1] is “++ (++ indicates binding activity from 10 to 50%)”.
